Source: US10478505B2, “Edible oils to enhance delivery of orally administered steroids” (The Regents of the University of California, priority 2011, dated 2019)
“Also recorded” adds a separate entry of the source.

Columns and labels:
NIH Swiss mice [1] = assay: PTZ seizure threshold test (intravenous PTZ infusion); type: in vivo, mouse; details: for anticonvulsant activity in the PTZ seizure threshold test (seizure threshold): 50 mg/kg (5 mg/ml) and 100 mg/kg (10 mg/ml)
Method: (§1) Animals. Male NIH Swiss mice (22-30 g) were housed four per cage. Animals were kept in a vivarium under controlled laboratory conditions (temperature, 22-26° C.; humidity, 40-50%) with an artificial 12-h light/dark cycle and free access to food and water. Animals were allowed to acclimate to the vivarium for ≥5 days. The experiments were performed during the light phase of the light/dark cycle after a ≥30-min period of acclimation to the experimental room. Animals were maintained in facilities fully accredited by the Association for Assessment and Accreditation of Laboratory Animal Care, and all studies were performed under protocols approved by the University of California, Davis, Institutional Animal Care and Use Committee the Animal Care and Use in strict compliance with the Guide for the Care and Use of Laboratory Animals of the National Research Council (National Academy Press, Washington, D.C.; on the internet at nap.edu/readingroom/books/labrats/).
(§2) Test substances and drug administration. Solutions of allopreganolone (SAFC Pharma, Madison, Wis., U.S.A.) were made in miglyol (Neobee M5®, Spectrum Chemicals, Gardena, Calif.), canola oil (ConAgra Foods, Omaha, Nebr.) or peanut oil (Sigma-Aldrich, St. Louis, Mo.). The convulsant agent pentylenetetrazol (PTZ) (Sigma-Aldrich, St. Louis, Mo.) was dissolved in saline immediately before use and administered intravenously (i.v.). For the PTZ threshold test, allopregnanolone solutions were administered orally (p.o.) 30 min, 1 hr and 2 hr before PTZ infusion, in a volume equaling 10 ml/kg. For the 6-Hz seizure test, solutions of allopregnanolone in canola oil were administered in a volume equaling 20 ml/kg.
PTZ seizure threshold test. The threshold for various behavioral seizure stages induced by the GABA receptor antagonist PTZ, was determined by infusing PTZ via a 27-gauge, 0.75-inch “butterfly” needle inserted into the lateral tail vein. The needle was secured to the tail vein by a narrow piece of adhesive tape, and the animal was permitted to move freely inside an inverted plastic container with free aeration from the top. PTZ (10 mg/ml) were infused at a constant rate of 0.5 ml/min using a 1-ml syringe (BD Biosciences, Franklin Lakes, N.J.) mounted on a Harvard infusion pump (Harvard Apparatus Inc., Holliston, Mass.). The syringe was connected to the needle by polyethylene tubing. The infusion was stopped at 3 min or at the onset of tonic extension, whichever occurred first. The thresholds to the onset of tonic hindlimb extension were determined by measuring the latency from the start of convulsant infusion to the onset of all the response. The threshold value (milligrams per kilogram) was determined according to the following formula: (infusion duration [seconds]×infusion rate [milliliters per minute]×convulsant drug concentration [milligrams per milliliter]×1000)/(60 s×weight of mouse [grams]).

NIH Swiss mice [2] = assay: 6-Hz seizure test; type: in vivo, mouse; details: dissolved in canola oil (10 mg/ml), 200 mg/kg, 32 mA for 3 s
Method: as §1
Test substances and drug administration. Solutions of allopreganolone (SAFC Pharma, Madison, Wis., U.S.A.) were made in miglyol (Neobee M5®, Spectrum Chemicals, Gardena, Calif.), canola oil (ConAgra Foods, Omaha, Nebr.) or peanut oil (Sigma-Aldrich, St. Louis, Mo.). […]
6-Hz seizure test. […] Animals were scored as protected or not protected. […]

NIH Swiss mice [3] = assay: PTZ seizure challenge (80 mg/kg PTZ s.c.); type: in vivo, mouse
Method: (§3) NIH Swiss mice were fasted 2 hours prior to experiment participation. Allopregnanolone (ALP) was suspended in vehicle (Tween 80 or canola oil). The time point of maximal effect of ALP was established by gavaging ALP and scoring relevant behavioral parameters outlined in the Irwin Test. See, Sylvain Roux, et al., Current Protocols in Pharmacology, Unit Number: UNIT 10.10, DOI: 10.1002/0471141755.ph1010s27 Online Posting Date: January, 2005. Lethality, convulsion, tremor, Straub, abnormal gait, fear, sedation, reactivity to touch, loss of traction, loss of righting reflex were measured.
Anticonvulsant potential of ALP was determined with PTZ seizure challenge. Oral gavage various ALP concentrations at 50 μl/10 g body weight, t=−45 min or t=−90 min, 80 mg/kg PTZ s.c. at t=0. Observe 30 min for seizure protection (absence of clonic spasms).

NIH Swiss mice [4] = assay: Irwin Test behavioral scoring (sedation); type: in vivo, mouse; details: 250 mg/kg in canola oil, oral
Method: as §3

[5] = Central nervous system effects of allopregnanolone in aqueous hydroxypropyl-beta-cyclodextrin solution; type: in vivo
[6] = Dissolution of allopregnanolone in oils; type: physicochemical; details: three oils: miglyol, canola oil, peanut oil
Method: as §2

[7] = oral delivery in canola oil (FIG. 4)

Question: What does the source list for `CC(=O)[C@H]1CCC2C3CC[C@H]4C[C@H](O)CC[C@]4(C)C3CC[C@@]21C` (stereo in doubt) [allopregnanolone, 1-(3-Hydroxy-10,13-dimethyl-2,3,4,5,6,7,8,9,11,12,14,15,16,17-tetradecahydro-1H-cyclopenta[a]phenanthren-17-yl)ethanone]?
Answer: duration of anti-seizure activity (NIH Swiss mice [1]; dissolved in canola oil and peanut oil, oral route): long-lasting anti-seizure activity; anti-seizure activity 120 to 240 min after administration (NIH Swiss mice [1]; dissolved in canola oil or peanut oil, oral, 120 to 240 min after administration, in some cases): activity was also present; anti-seizure activity 30 min after administration (NIH Swiss mice [1]; dissolved in canola oil or peanut oil, oral, 30 min after administration): no or only minimal activity; anti-seizure activity 60 min after administration (NIH Swiss mice [1]; dissolved in canola oil or peanut oil, oral, 60 min after administration): strong activity; anticonvulsant activity in the PTZ seizure threshold test (seizure threshold) (NIH Swiss mice [1]; dissolved in canola oil, orally administered): activity was obtained; also recorded: time-dependent increase in seizure threshold; anticonvulsant activity in the PTZ seizure threshold test (NIH Swiss mice [1]; dissolved in miglyol, orally administered, 100 mg/kg): no bioactivity; also recorded: no activity; also recorded: inactive; anticonvulsant activity in the PTZ seizure threshold test (seizure threshold) (NIH Swiss mice [1]; dissolved in peanut oil, orally administered): activity was obtained; also recorded: time-dependent increase in seizure threshold; activity in the 6-Hz seizure test (NIH Swiss mice [2]): had activity; anticonvulsant activity in the pentylenetetrazol seizure test (NIH Swiss mice [3]; 250 mg/kg in canola oil, oral): anticonvulsant activity; effective threshold dose (NIH Swiss mice [3]; [7]): 25 to 75 mg/kg; oral bioavailability (NIH Swiss mice [3]; [7]): markedly enhances; sedation (NIH Swiss mice [4]): profound sedation; central nervous system effects ([5]; high doses administered orally in aqueous solution of hydroxypropyl-beta-cyclodextrin): failed to produce central nervous system effects; central nervous system effects ([5]; parenteral administration as aqueous solution in hydroxypropyl-beta-cyclodextrin): readily causes central nervous system effects; dissolution in oils [6]: readily dissolve
